Measured values published in patent US12448395B2 (BRISTOL-MYERS SQUIBB COMPANY, priority 2019, dated 2025).

How the values were obtained:
Format in all cases: cell-based
human TLR9 = biological target: T1, human TLR9 (Homo sapiens, UniProt Q9NR96); assay: TLR9 inhibition reporter assay (HEK-Blue SEAP, ODN2006 stimulation); conditions: HEK-Blue cells overexpressing human TLR9, ODN2006 5 nM
T1 sequence (Q9NR96 26-1032): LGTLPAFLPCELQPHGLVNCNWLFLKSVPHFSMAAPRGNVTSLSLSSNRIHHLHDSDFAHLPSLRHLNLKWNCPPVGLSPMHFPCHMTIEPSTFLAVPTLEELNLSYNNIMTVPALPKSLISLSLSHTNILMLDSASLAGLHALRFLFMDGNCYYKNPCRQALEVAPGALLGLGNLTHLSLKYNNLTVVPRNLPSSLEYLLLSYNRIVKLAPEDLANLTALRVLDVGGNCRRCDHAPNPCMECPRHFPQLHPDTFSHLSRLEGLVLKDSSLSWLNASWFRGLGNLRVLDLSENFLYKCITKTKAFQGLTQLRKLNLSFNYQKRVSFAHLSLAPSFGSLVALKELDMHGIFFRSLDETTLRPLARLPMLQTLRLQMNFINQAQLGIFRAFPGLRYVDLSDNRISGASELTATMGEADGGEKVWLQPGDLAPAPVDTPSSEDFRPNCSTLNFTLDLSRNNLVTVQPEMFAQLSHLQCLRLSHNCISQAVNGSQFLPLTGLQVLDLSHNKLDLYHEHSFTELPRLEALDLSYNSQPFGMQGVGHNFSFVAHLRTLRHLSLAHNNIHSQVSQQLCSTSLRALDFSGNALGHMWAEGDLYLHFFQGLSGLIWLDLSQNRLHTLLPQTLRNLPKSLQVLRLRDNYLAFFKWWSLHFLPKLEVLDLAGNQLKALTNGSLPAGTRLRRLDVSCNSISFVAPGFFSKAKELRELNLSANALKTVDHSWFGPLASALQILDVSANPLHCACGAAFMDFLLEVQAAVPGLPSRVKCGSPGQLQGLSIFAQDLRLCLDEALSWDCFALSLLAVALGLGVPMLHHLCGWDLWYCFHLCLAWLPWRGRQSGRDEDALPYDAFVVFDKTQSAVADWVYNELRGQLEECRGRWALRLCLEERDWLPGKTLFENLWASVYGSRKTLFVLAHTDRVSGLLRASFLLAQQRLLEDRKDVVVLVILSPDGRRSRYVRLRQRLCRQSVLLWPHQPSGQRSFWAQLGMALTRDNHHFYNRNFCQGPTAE
Outline: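 Dose–response from 0.05 nM to 50 μM was run in HEK-Blue human TLR7, TLR8 and TLR9 reporter cells. After 30 min at room temperature with compound, ligand was added (TLR7 gardiquimod 7.5 μM; TLR8 R848 15.9 μM; TLR9 ODN2006 5 nM) and SEAP measured next day, at 22 h.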

human TLR7 = biological target: T2, human TLR7 (Homo sapiens, UniProt Q9NYK1); assay: TLR7 inhibition reporter assay (HEK-Blue SEAP, gardiquimod stimulation); conditions: HEK-Blue cells overexpressing human TLR7, gardiquimod 7.5 μM
T2 sequence (Q9NYK1 27-1049): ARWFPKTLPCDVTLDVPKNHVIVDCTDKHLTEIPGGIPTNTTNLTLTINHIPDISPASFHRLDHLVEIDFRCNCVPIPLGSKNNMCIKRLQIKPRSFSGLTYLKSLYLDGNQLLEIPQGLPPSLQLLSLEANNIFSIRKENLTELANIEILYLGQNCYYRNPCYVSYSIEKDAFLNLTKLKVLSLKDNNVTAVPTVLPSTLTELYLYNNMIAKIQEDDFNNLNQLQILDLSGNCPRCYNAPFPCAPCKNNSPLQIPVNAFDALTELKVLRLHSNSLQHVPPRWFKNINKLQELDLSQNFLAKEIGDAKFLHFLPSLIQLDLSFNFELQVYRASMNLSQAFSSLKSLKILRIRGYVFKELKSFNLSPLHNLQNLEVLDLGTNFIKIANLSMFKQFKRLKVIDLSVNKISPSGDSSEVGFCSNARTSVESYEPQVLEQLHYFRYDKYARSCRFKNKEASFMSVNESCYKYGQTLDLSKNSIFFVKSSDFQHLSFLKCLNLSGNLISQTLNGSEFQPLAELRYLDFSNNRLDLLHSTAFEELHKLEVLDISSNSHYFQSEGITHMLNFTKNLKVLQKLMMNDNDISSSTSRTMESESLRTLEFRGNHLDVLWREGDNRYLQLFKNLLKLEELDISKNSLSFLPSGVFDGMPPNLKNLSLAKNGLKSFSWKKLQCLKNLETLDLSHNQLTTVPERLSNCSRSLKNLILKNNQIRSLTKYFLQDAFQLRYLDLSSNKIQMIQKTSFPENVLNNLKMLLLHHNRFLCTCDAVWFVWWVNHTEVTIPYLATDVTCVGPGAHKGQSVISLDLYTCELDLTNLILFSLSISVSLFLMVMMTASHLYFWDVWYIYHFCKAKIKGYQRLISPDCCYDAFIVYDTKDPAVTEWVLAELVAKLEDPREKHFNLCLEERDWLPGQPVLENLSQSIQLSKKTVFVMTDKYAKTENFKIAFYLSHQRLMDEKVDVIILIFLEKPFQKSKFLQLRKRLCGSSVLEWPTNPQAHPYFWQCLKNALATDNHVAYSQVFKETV
Protocol: (§1) TLR7/8/9 Inhibition Reporter Assays
(§2) HEK-Blue™-cells (Invivogen) overexpressing human TLR7, TLR8 or TLR9 receptors were used for screening inhibitors of these receptors using an inducible SEAP (secreted embryonic alkaline phosphatase) reporter gene under the control of the IFN-β minimal promoter fused to five NF-κB and AP-1-binding sites. Briefly, cells are seeded into Greiner 384 well plates (15000 cells per well for TLR7, 20,000 for TLR8 and 25,000 for TLR9) and then treated with test compounds in DMSO to yield a final dose response concentration range of 0.05 nM-50 μM. After a 30 minute compound pre-treatment at room temperature, the cells are then stimulated with a TLR7 ligand (gardiquimod at a final concentration of 7.5 μM), TLR8 ligand (R848 at a final concentration of 15.9 μM) or TLR9 ligand (ODN2006 at a final concentration of 5 nM) to activate NF-κB and AP-1 which induce the production of SEAP. After a 22 hour incubation at 37° C., 5% CO2, SEAP levels are determined with the addition of HEK-Blue™ Detection reagent (Invivogen), a cell culture medium that allows for detection of SEAP, according to manufacturer's specifications. The percent inhibition is determined as the % reduction in the HEK-Blue signal present in wells treated with agonist plus DMSO alone compared to wells treated with a known inhibitor.

human TLR8 = biological target: T3, human TLR8 (Homo sapiens, UniProt Q9NR97); assay: TLR8 inhibition reporter assay (HEK-Blue SEAP, R848 stimulation); conditions: HEK-Blue cells overexpressing human TLR8, R848 15.9 μM
T3 sequence (Q9NR97 27-1041): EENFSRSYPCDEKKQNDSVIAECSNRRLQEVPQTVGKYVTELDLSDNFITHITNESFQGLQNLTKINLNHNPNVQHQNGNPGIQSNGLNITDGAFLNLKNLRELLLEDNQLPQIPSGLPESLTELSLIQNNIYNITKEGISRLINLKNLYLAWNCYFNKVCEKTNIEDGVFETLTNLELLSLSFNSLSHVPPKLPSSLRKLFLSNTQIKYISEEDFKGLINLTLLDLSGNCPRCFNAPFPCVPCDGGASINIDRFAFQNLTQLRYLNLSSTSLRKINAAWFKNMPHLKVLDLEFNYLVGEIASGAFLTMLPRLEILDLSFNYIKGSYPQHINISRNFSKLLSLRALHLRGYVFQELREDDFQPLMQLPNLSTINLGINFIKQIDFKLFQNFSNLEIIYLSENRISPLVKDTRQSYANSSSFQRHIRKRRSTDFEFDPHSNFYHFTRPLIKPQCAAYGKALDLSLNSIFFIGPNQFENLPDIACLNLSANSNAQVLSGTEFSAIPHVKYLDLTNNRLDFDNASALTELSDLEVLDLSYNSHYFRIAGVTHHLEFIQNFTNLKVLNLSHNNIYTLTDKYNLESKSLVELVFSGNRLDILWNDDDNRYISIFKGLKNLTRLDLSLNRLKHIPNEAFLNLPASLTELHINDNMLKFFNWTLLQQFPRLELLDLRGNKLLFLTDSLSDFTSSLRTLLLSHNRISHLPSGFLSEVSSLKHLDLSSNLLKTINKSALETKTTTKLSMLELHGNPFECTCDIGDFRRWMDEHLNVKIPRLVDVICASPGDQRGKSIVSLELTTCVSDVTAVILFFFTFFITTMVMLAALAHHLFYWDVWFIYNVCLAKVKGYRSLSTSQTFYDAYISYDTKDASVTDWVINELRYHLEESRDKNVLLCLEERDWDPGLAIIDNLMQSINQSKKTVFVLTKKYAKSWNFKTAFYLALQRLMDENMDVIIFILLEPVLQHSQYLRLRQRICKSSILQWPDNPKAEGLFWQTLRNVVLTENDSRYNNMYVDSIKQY
Protocol: as §1, §2

IC50 (human TLR9) [nM] | IC50 (human TLR7) [nM] | IC50 (human TLR8) [nM] | SMILES
12600 | 2.27 | 0.64 | Cc1c(-c2[nH]c3sc(C4CCC(NCC(=O)N5CCOCC5)CC4)nc3c2C(C)C)cn2ncnc2c1C (single isomer, unassigned) [Example 206, 2-((4-(5-(7,8-dimethyl-[1,2,4]triazolo[1,5-a]pyridin-6-yl)-6-isopropyl-4H-pyrrolo[3,2-d]thiazol-2-yl)cyclohexyl)amino)-1-morpholinoethan-1-one]
20700 | 2.92 | 0.31 | Cc1c(-c2[nH]c3sc(C4CCC(NCC(=O)N5CCOCC5)CC4)nc3c2C(C)C)cn2ncnc2c1C (single isomer, unassigned) [Example 207, 2-((4-(5-(7,8-dimethyl-[1,2,4]triazolo[1,5-a]pyridin-6-yl)-6-isopropyl-4H-pyrrolo[3,2-d]thiazol-2-yl)cyclohexyl)amino)-1-morpholinoethan-1-one]
